Measurements reported in patent US20250228785A1, “MICROCAPSULE, PREPARATION METHOD THEREFOR, AND USE THEREOF IN PREVENTING AND/OR TREATING DAMAGE TO SALIVARY GLANDS CAUSED BY RADIATION THERAPY” (CAPITAL MEDICAL UNIVERSITY, priority 2021, published 2025).
Marks after values point to notes of the source that are not given here.

How the values were obtained:
[1] = test system: human submandibular gland epithelial cell line (HSG); test: RTCA cell proliferation after single X-ray irradiation with drugs; type: cell-based; conditions: Table 5 and FIG. 7
From the text: 2) The proliferation plate were taken out, and the medium was refreshed. […] The cells were subjected to single X-ray (RAD SOURCE 2000) irradiation at a dose of 1.22 gy/min and a total dose of 2 gy.
3) After irradiation, detection was continuously carried out.

[2] = Serum biochemical detection at 8 weeks after radiotherapy; conditions: SD rats, 8 weeks after submandibular gland irradiation
rat salivary gland = test: Salivary flow rate of rats before and after radiotherapy; conditions: SD rats
[3] = test system: submandibular gland acinar cells; test: Vacuole area in submandibular gland acinar cells (HE staining); type: in vivo; conditions: SD rats, high dose 40.5 mM, 8 weeks after radiotherapy
From the text: At 8 weeks after radiotherapy, the micrographs (×40) of the HE stained submandibular gland tissues of the rats in each experimental group were shown in FIG. 9A on the right of the panel of FIG. 9. See FIG. 9B on the left of the panel of FIG. 9.

AQP5 = AQP5 expression level in submandibular gland acinar cells (immunofluorescence); type: in vivo; conditions: SD rats, 8 weeks after radiotherapy
From the text: The immunofluorescence staining photographs (×20 under microscope) of the paraffin sections of the submandibular gland of the rats in each experimental group at 8 weeks after radiotherapy, and the quantitation results of the expression levels of AQP5 in the submandibular gland acinar cells in each group were shown in FIG. 10 and Table 8.

[4] = test system: human submandibular gland epithelial cell line (HSG); test: RTCA cell proliferation after addition of drugs (no irradiation); conditions: microcapsules 0.25 mM, nitrate 0.5 mM
[5] = Nitrate content in saliva of rats after radiotherapy; type: in vivo; conditions: SD rats, 4 and 8 weeks after radiotherapy
[6] = HE staining of sections of major organs (heart, liver, spleen, lung, kidney); conditions: SD rats
[7] = Nitrate content in the blood of mice after single gastric gavage; type: in vivo; conditions: ICR mice, 2 mmol/kg sodium nitrate single gastric gavage
Method: A total of 40 ICR mice (male, 20±4 g) were randomly divided into 4 groups of 10 mice each. […] Blood was collected from vena caudalis at 0 h, and 2, 4, 6, 12, and 24 h after gastric gavage, respectively.

[8] = high dose 40.5 mM in drinking water
[9] = low dose 20.25 mM in drinking water

With `O=C1O[C@H]([C@@H](O)CO)C(O)=C1O` [Vc, vitamin C] the “effect on proliferation of submandibular gland epithelial cells after single irradiation” value [1] was “promote the proliferation”.

Work on `O=[N+]([O-])[O-].[Na+]` [Sodium nitrate, sodium nitrate] yielded an ALP [2, 8] of 112.00 ± 19.69 U/L, an ALT [2, 8] of 49.20 ± 10.30 U/L and an AST [2, 8] of 116.20 ± 9.44 U/L. For the same molecule, the Alb [2, 8] was 8.66 ± 0.87 g/L, the Ca [2, 8] was 2.41 ± 0.14 mmol/L and the Cr [2, 8] was 46.7 ± 14.59 µmol/L. The D-Bil [2, 8] was 1.8 ± 1.21 µmol/L, the GGT [2, 8] was 5.00 ± 0.71 U/L and the Glb [2, 8] was 45.42 ± 3.88 g/L. For the same molecule, the HDL-C [2, 8] was 2.09 ± 0.43 mmol/L, the I-Bil [2, 8] was 1.73 ± 1.57 µmol/L and the K [2, 8] was 5.10 ± 0.45 mmol/L. The LDH [2, 8] was 747.40 ± 165.67 U/L, the LDL-C [2, 8] was 0.24 ± 0.06 mmol/L and the Na [2, 8] was 141.66 ± 1.62 mmol/L. It also gave a P [2, 8] of 2.77 ± 1.01 mmol/L, a T-Bil [2, 8] of 3.52 ± 2.00 µmol/L and a TC [2, 8] of 1.87 ± 0.38 mmol/L. For the same molecule, the TCO2 [2, 8] was 30.12 ± 3.07 mmol/L, the TG [2, 8] was 0.31 ± 0.38 mmol/L and the TP [2, 8] was 54.08 ± 4.11 g/L. It also gave a Urea [2, 8] of 5.78 ± 1.21 mmol/L, an ALP [2, 9] of 95.00 ± 52.85 U/L and an ALT [2, 9] of 46.60 ± 16.80 U/L. For the same molecule, the AST [2, 9] was 123.80 ± 38.49 U/L, the Alb [2, 9] was 8.20 ± 1.32 g/L and the Ca [2, 9] was 2.39 ± 0.09 mmol/L. It also gave a Cr [2, 9] of 47.82 ± 12.95 µmol/L, a D-Bil [2, 9] of 1.43 ± 0.40 µmol/L and a GGT [2, 9] of 5.60 ± 0.89 U/L. It also gave a Glb [2, 9] of 44.68 ± 1.80 g/L, an HDL-C [2, 9] of 2.13 ± 0.71 mmol/L and an I-Bil [2, 9] of 1.43 ± 1.07 µmol/L. The K [2, 9] was 5.31 ± 0.48 mmol/L, the LDH [2, 9] was 1212.44 ± 728.19 U/L and the LDL-C [2, 9] was 0.27 ± 0.06 mmol/L. For the same molecule, the Na [2, 9] was 140.72 ± 1.47 mmol/L, the P [2, 9] was 2.37 ± 0.22 mmol/L and the T-Bil [2, 9] was 2.52 ± 1.37 µmol/L. The TC [2, 9] was 2.05 ± 0.71 mmol/L, the TCO2 [2, 9] was 30.26 ± 2.68 mmol/L and the TG [2, 9] was 0.57 ± 0.42 mmol/L. The TP [2, 9] was 52.88 ± 2.40 g/L, the salivary flow rate (rat salivary gland; high dose 40.5 mM in drinking water, 1 W after radiotherapy) was 0.48 ± 0.25 ml/20 min and the salivary flow rate (rat salivary gland; high dose 40.5 mM in drinking water, 2 W after radiotherapy) was 1.12 ± 0.20^a ml/20 min. For the same molecule, the salivary flow rate (rat salivary gland; high dose 40.5 mM in drinking water, 4 W after radiotherapy) was 0.91 ± 0.17^a ml/20 min, the salivary flow rate (rat salivary gland; high dose 40.5 mM in drinking water, 6 W after radiotherapy) was 0.80 ± 0.09^a ml/20 min and the salivary flow rate (rat salivary gland; high dose 40.5 mM in drinking water, 8 W after radiotherapy) was 0.81 ± 0.13 ml/20 min. The salivary flow rate (rat salivary gland; high dose 40.5 mM in drinking water, first column 1 W (1 week before radiotherapy)) was 1.37 ± 0.24 ml/20 min, the salivary flow rate (rat salivary gland; low dose 20.25 mM in drinking water, 1 W after radiotherapy) was 0.60 ± 0.25 ml/20 min and the salivary flow rate (rat salivary gland; low dose 20.25 mM in drinking water, 2 W after radiotherapy) was 0.95 ± 0.01^a ml/20 min. For the same molecule, the salivary flow rate (rat salivary gland; low dose 20.25 mM in drinking water, 4 W after radiotherapy) was 0.82 ± 0.21^a ml/20 min, the salivary flow rate (rat salivary gland; low dose 20.25 mM in drinking water, 6 W after radiotherapy) was 0.74 ± 0.12 ml/20 min and the salivary flow rate (rat salivary gland; low dose 20.25 mM in drinking water, 8 W after radiotherapy) was 0.76 ± 0.09 ml/20 min. For the same molecule, the salivary flow rate (rat salivary gland; low dose 20.25 mM in drinking water, first column 1 W (1 week before radiotherapy)) was 1.34 ± 0.26 ml/20 min, the “vacuole area in submandibular gland acinar cells as compared with IR group” value [3] was “significantly decreased” and the “expression level of AQP5 versus IR group” value (AQP5; high dose 40.5 mM) was “significantly different”. The “expression level of AQP5 versus IR group” value (AQP5; low dose 20.25 mM) was “significantly different”, the “effect on proliferation of submandibular gland epithelial cells under normal conditions” value [4] was “promote the proliferation” and the “effect on proliferation of submandibular gland epithelial cells after single irradiation” value [1] was “promote the proliferation”. For the same molecule, the “nitrate content in saliva, course after administration” value [5] was “relatively stable”, the “effect on the organs in the body of the rats” value ([6]; continuous administration of 40.5 mM for 9 weeks) was “no significant effect” and the “abnormality in the major organs, HE stained sections” value ([6]; high dose 40.5 mM, 8 weeks after radiotherapy, FIG. 12) was “no abnormality”. For the same molecule, the “Nitrate content in the blood” value ([7]; 0 h) was 41.8 µmol/L, the “Nitrate content in the blood” value ([7]; 2 h) was 1052.8 µmol/L and the “Nitrate content in the blood” value ([7]; 4 h) was 572.4 µmol/L. The “Nitrate content in the blood” value ([7]; 6 h) was 297.4 µmol/L, the “Nitrate content in the blood” value ([7]; 12 h) was 45.3 µmol/L and the “Nitrate content in the blood” value ([7]; 24 h) was 32.7 µmol/L.
